The values below come from ChEMBL document CHEMBL1938240, “Enzymatic transformation of caffeic acid with enhanced cyclooxygenase-2 inhibitory activity” (Bioorg Med Chem Lett, 2012).

The target in the experiment is T1, Prostaglandin G/H synthase 2 (Homo sapiens, UniProt P35354).
T1 sequence (P35354 whole entry): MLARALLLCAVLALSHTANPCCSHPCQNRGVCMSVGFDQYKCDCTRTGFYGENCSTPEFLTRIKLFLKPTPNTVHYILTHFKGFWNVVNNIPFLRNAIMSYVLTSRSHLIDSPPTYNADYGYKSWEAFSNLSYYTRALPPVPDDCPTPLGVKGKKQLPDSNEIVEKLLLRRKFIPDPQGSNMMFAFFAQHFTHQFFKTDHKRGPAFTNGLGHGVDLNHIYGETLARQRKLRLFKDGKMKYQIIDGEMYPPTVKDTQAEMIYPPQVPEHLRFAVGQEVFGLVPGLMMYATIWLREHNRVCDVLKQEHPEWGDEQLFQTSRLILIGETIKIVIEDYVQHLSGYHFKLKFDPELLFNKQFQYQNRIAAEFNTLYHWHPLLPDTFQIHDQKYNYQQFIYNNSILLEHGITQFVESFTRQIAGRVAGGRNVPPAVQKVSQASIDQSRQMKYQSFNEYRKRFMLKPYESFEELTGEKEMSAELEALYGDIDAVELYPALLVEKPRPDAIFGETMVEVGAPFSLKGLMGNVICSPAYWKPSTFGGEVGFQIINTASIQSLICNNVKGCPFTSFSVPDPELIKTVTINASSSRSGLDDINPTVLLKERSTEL
The experiment can be described thus: Inhibition of COX2 assessed as inhibition of PGE2 production using arachidonic acid as substrate after 10 mins by ELISA.
Usually IC50 stands for the point on the concentration scale where inhibition reaches its midpoint. Consider `O=C(O)/C=C/C12C=C(O)C(=O)C=C1C(=O)C1=Cc3cc(O)c(O)cc3O[C@@H](c3ccc(O)c(O)c3)[C@@H]12` (relative stereo), for which the IC50 worked out at 9.8 µM.

With `O=C(O)/C=C/c1ccc2c(c1)O[C@@H](C(=O)O)[C@@H](c1ccc(O)c(O)c1)O2` (relative stereo), the IC50 worked out at 52.6 µM. In the case of `O=C(O)/C=C/c1ccc2c(c1)O[C@H](c1cc(O)cc(O)c1)[C@H](C(=O)O)O2` [CAFFEICINIC ACID] it was 7.5 µM; in that of `O=C1O[C@@H](c2ccc(O)c(O)c2)[C@H](C(=O)O)/C1=C\c1ccc(O)c(O)c1` [PHELLINSIN A], 42.6 µM.
